From patent publication US11203571B2, “Sulfonamides as modulators of sodium channels” (VERTEX PHARMACEUTICALS INCORPORATED, priority 2013, dated 2021)

Assays:
human Nav1.8 = human Nav1.8 (Homo sapiens (Human), UniProt Q9Y5Y9); assay: E-VIPR optical membrane potential assay with electrical stimulation; assay type: cell-based; conditions: HEK cells expressing human Nav1.8
From the text: E-VIPR Optical Membrane Potential Assay Method with Electrical Stimulation
Sodium channels are voltage-dependent proteins that can be activated by inducing membrane voltage changes by applying electric fields. The electrical stimulation instrument and methods of use are described in Ion Channel Assay Methods PCT/US01/21652, herein incorporated by reference and are referred to as E-VIPR. The instrument comprises a microtiter plate handler, an optical system for exciting the coumarin dye while simultaneously recording the coumarin and oxonol emissions, a waveform generator, a current- or voltage-controlled amplifier, and a device for inserting electrodes in well. Under integrated computer control, this instrument passes user-programmed electrical stimulus protocols to cells within the wells of the microtiter plate.
24 hours before the assay on E-VIPR, HEK cells expressing human Nav1.8 were seeded in 384-well poly-lysine coated plates at 15,000-20,000 cells per well. HEK cells were grown in media (exact composition is specific to each cell type and NaV subtype) supplemented with 10% FBS (Fetal Bovine Serum, qualified; GibcoBRL #16140-071) and 1% Pen-Strep (Penicillin-Streptomycin; GibcoBRL #15140-122). Cells were grown in vented cap flasks, in 90% humidity and 5% CO2.
• 100 mg/mL Pluronic F-127 (Sigma #P2443), in dry DMSO • Compound Plates: 384-well round bottom plate, e.g. Corning 384-well Polypropylene Round Bottom #3656 • Cell Plates: 384-well tissue culture treated plate, e.g. Greiner #781091-1B • 10 mM DiSBAC6(3) (Aurora #00-100-010) in dry DMSO • 10 mM CC2-DMPE (Aurora #00-100-008) in dry DMSO • 200 mM ABSC1 in H20
Bath1 buffer: Glucose 10 mM (1.8 g/L), Magnesium Chloride (Anhydrous), 1 mM (0.095 g/L), Calcium Chloride, 2 mM (0.222 g/L), HEPES 10 mM (2.38 g/L), Potassium Chloride, 4.5 mM (0.335 g/L), Sodium Chloride 160 mM (9.35 g/L).
Hexyl Dye Solution: Bath1 Buffer+0.5% β-cyclodextrin (make this prior to use, Sigma #C4767), 8 μM CC2-DMPE+2.5 μM DiSBAC6(3). To make the solution Added volume of 10% Pluronic F127 stock equal to volumes of CC2-DMPE+DiSBAC6(3). The order of preparation was first mix Pluronic and CC2-DMPE, then added DiSBAC6(3) while vortexing, then added Bath1+β-Cyclodextrin.
1) Pre-spotted compounds (in neat DMSO) into compound plates. Vehicle control (neat DMSO), the positive control (20 mM DMSO stock tetracaine, 125 μM final in assay) and test compounds were added to each well at 160× desired final concentration in neat DMSO. Final compound plate volume was 80 μL (80-fold intermediate dilution from 1 μL DMSO spot; 160-fold final dilution after transfer to cell plate). Final DMSO concentration for all wells in assay was 0.625%.
2) Prepared Hexyl Dye Solution.
3) Prepared cell plates. On the day of the assay, medium was aspirated and cells were washed three times with 100 μL of Bath1 Solution, maintaining 25 μL residual volume in each well.
4) Dispensed 25 μL per well of Hexyl Dye Solution into cell plates. Incubated for 20-35 minutes at room temp or ambient conditions.
5) Dispensed 80 μL per well of Bath1 into compound plates. Acid Yellow-17 (1 mM) was added and Potassium Chloride was altered from 4.5 to 20 mM depending on the NaV subtype and assay sensitivity.
6) Washed cell plates three times with 100 μL per well of Bath1, leaving 25 μL of residual volume. Then transferred 25 uL per well from Compound Plates to Cell Plates. Incubated for 20-35 minutes at room temp/ambient condition.
7) Read Plate on E-VIPR. Used the current-controlled amplifier to deliver stimulation wave pulses for 10 seconds and a scan rate of 200 Hz. A pre-stimulus recording was performed for 0.5 seconds to obtain the un-stimulated intensities baseline. The stimulatory waveform was followed by 0.5 seconds of post-stimulation recording to examine the relaxation to the resting state.
Data was analyzed and reported as normalized ratios of emission intensities measured in the 460 nm and 580 nm channels. […]

[1] = Human liver microsome assay; assay type: in vitro ADME; conditions: 1 uM substrate, 0.5 mg/mL liver microsome, 2 mM NADPH, 37° C., referenced against time zero control
Experimental: Human Liver Microsome Assay Protocol
Liver microsomal stability data were generated as follows. Substrates were incubated at 37° C. and shaken for 30 minutes in a phosphate buffered solution with human liver microsomes and the cofactor NADPH. A time zero control was similarly prepared, however with NADPH excluded. The final incubation concentrations were 1 uM substrate (0.2% DMSO), 0.5 mg/mL liver microsome, 2 mM NADPH, and 0.1 M phosphate. Reactions were quenched and proteins precipitated with the addition of 2 volume equivalents of ice cold acetonitrile containing an internal standard. Following a centrifugation step, aliquots from the quenched incubations were further diluted with 4 volume equivalents of a 50% aqueous methanol solution and then subjected to LC/MS/MS analysis for quantitation of parent substrate. Microsome stability values were calculated as the percent of substrate remaining after 30 minutes referenced against the time zero control.

human Nav1.8, sequence (Q9Y5Y9 whole entry): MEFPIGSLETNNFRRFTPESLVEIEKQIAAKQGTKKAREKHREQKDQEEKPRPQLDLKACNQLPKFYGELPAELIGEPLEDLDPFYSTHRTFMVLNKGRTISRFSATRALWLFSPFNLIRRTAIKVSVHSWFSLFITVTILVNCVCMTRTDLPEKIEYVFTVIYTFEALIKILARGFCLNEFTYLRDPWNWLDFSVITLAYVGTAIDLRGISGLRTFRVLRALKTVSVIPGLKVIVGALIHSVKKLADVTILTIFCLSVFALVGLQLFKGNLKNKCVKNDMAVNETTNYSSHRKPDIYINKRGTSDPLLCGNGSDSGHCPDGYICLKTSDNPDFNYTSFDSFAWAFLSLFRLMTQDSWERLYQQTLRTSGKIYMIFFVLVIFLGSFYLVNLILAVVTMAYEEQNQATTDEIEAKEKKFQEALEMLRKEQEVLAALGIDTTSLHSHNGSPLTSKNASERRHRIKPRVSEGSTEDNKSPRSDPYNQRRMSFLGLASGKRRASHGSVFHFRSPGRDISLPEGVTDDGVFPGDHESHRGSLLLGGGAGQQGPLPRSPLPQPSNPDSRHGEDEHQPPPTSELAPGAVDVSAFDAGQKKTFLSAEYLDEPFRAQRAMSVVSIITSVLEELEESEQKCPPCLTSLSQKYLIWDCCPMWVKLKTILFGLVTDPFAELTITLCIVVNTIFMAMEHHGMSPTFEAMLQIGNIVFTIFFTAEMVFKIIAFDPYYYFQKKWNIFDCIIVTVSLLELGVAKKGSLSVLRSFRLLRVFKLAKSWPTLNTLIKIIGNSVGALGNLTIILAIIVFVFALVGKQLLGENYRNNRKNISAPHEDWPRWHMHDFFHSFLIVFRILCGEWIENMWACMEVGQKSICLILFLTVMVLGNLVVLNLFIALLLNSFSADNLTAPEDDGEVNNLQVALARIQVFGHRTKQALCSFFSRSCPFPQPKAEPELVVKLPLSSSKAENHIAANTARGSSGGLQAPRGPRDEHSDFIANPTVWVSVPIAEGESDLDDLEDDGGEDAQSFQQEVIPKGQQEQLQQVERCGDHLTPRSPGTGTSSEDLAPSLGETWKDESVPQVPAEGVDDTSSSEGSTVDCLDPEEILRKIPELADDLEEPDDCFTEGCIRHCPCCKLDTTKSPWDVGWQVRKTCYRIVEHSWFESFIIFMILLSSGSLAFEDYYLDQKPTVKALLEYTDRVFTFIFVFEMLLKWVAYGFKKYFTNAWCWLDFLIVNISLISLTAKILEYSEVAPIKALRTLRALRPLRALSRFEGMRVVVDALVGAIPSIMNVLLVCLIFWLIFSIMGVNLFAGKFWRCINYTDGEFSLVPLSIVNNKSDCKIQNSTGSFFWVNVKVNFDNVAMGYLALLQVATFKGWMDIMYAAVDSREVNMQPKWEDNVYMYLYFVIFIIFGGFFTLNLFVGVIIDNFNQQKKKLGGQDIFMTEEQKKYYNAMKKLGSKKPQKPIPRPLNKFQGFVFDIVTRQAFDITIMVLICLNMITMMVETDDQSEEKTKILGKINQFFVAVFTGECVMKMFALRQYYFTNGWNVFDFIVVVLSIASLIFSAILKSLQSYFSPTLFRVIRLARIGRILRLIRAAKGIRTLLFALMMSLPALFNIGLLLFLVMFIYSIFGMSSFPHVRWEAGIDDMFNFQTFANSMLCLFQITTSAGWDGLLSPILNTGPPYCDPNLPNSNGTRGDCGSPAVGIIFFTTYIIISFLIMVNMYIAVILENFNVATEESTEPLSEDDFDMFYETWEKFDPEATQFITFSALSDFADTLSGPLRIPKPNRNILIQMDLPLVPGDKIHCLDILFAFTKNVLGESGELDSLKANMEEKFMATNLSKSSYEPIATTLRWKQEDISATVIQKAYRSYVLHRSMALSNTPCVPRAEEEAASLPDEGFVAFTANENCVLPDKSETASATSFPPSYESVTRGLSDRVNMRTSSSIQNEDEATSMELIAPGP

SMILES	IC50 (human Nav1.8) [nM]	HLM: percent unchanged after 30 min [1] [%]
NS(=O)(=O)c1cccc(NC(=O)c2cc(C(F)(F)F)ccc2Oc2ccc(OC(F)F)cc2)c1 [Compound 41, 2-(4-(difluoromethoxy)phenoxy)-N-(3-sulfamoylphenyl)-5-(trifluoromethyl)benzamide]	22	95
Cc1cc(F)ccc1Oc1cc(C#N)ccc1C(=O)Nc1cccc(S(N)(=O)=O)c1 [Compound 9, 4-cyano-2-(4-fluoro-2-methyl-phenoxy)-N-(3-sulfamoylphenyl)benzamide]	28	102
COc1cc(Cl)ccc1Oc1cc(Cl)c(Cl)cc1C(=O)Nc1cccc(S(N)(=O)=O)c1 [Compound 80, 4,5-dichloro-2-(4-chloro-2-methoxyphenoxy)-N-(3-sulfamoylphenyl)benzamide]	4	108
COc1ccc(Oc2ccc(C(F)(F)F)cc2C(=O)Nc2cccc(S(N)(=O)=O)c2)c(Cl)c1 [Compound 31, 2-(2-chloro-4-methoxyphenoxy)-N-(3-sulfamoylphenyl)-5-(trifluoromethyl)benzamide]	6	82
NS(=O)(=O)c1cccc(NC(=O)c2cc(C(F)(F)F)ccc2Oc2ccc(F)cc2)c1 [Compound 3, 2-(4-fluorophenoxy)-N-(3-sulfamoylphenyl)-5-(trifluoromethyl)benzamide]	16	117
COc1cc(Cl)ccc1Oc1ccc(C(F)(F)F)cc1C(=O)Nc1cccc(S(N)(=O)=O)c1 [Compound 35, 2-(4-chloro-2-methoxyphenoxy)-N-(3-sulfamoylphenyl)-5-(trifluoromethyl)benzamide]	5	82
COc1c(F)cccc1Oc1cc(C(F)(F)F)ccc1C(=O)Nc1cccc(S(N)(=O)=O)c1 [Compound 52, 2-(3-fluoro-2-methoxyphenoxy)-N-(3-sulfamoylphenyl)-4-(trifluoromethyl)benzamide]	11	81
COc1ccc(Oc2cc(C(F)(F)F)cc(C(F)(F)F)c2C(=O)Nc2cccc(S(N)(=O)=O)c2)c(F)c1 [Compound 91, 2-(2-fluoro-4-methoxyphenoxy)-N-(3-sulfamoylphenyl)-4,6-bis(trifluoromethyl)benzamide]	7	69
COc1cc(Cl)ccc1Oc1cc(C(F)(F)F)ccc1C(=O)Nc1cccc(S(N)(=O)=O)c1 [Compound 42, 2-(4-chloro-2-methoxyphenoxy)-N-(3-sulfamoylphenyl)-4-(trifluoromethyl)benzamide]	10	84
NS(=O)(=O)c1cccc(NC(=O)c2cc(C(F)(F)F)ccc2Oc2ccc(F)cc2F)c1 [Compound 6, 2-(2,4-difluorophenoxy)-N-(3-sulfamoylphenyl)-5-(trifluoromethyl)benzamide]	13	106
Cc1cc(F)ccc1Oc1cc(Cl)ccc1C(=O)Nc1cccc(S(N)(=O)=O)c1 [Compound 19, 4-chloro-2-(4-fluoro-2-methyl-phenoxy)-N-(3-sulfamoylphenyl)benzamide]	16	94
COc1cc(F)ccc1Oc1cc(Cl)cc(Cl)c1C(=O)Nc1cccc(S(N)(=O)=O)c1 [Compound 95, 2,4-dichloro-6-(4-fluoro-2-methoxyphenoxy)-N-(3-sulfamoylphenyl)benzamide]	0.9	91
NS(=O)(=O)c1cccc(NC(=O)c2ccc(OC(F)(F)F)cc2Oc2ccc(F)cc2Cl)c1 [Compound 56, 2-(2-chloro-4-fluorophenoxy)-N-(3-sulfamoylphenyl)-4-(trifluoromethoxy)benzamide]	4	102
COc1ccccc1Oc1cccc(C(F)(F)F)c1C(=O)Nc1cccc(S(N)(=O)=O)c1 [Compound 57, 2-(2-methoxyphenoxy)-N-(3-sulfamoylphenyl)-6-(trifluoromethyl)benzamide]	27	78
COc1ccc(Oc2cc(C(F)(F)F)ccc2C(=O)Nc2cccc(S(N)(=O)=O)c2)cc1F [Compound 43, 2-(3-fluoro-4-methoxyphenoxy)-N-(3-sulfamoylphenyl)-4-(trifluoromethyl)benzamide]	21	90
COc1ccc(Oc2cc(C(F)(F)F)ccc2C(=O)Nc2cccc(S(N)(=O)=O)c2)c(C)c1 [Compound 49, 2-(4-methoxy-2-methylphenoxy)-N-(3-sulfamoylphenyl)-4-(trifluoromethyl)benzamide]	12	57
Cc1cc(Cl)ccc1Oc1ccc(C(F)(F)F)cc1C(=O)Nc1cccc(S(N)(=O)=O)c1 [Compound 30, 2-(4-chloro-2-methylphenoxy)-N-(3-sulfamoylphenyl)-5-(trifluoromethyl)benzamide]	9	103
NS(=O)(=O)c1cccc(NC(=O)c2ccc(C(F)(F)F)cc2Oc2ccc(F)cc2F)c1 [Compound 2, 2-(2,4-difluorophenoxy)-N-(3-sulfamoylphenyl)-4-(trifluoromethyl)benzamide]	22	97
COc1cc(F)ccc1Oc1cc(C(F)(F)F)cc(C(F)(F)F)c1C(=O)Nc1cccc(S(N)(=O)=O)c1 [Compound 89, 2-(4-fluoro-2-methoxyphenoxy)-N-(3-sulfamoylphenyl)-4,6-bis(trifluoromethyl)benzamide]	1	87
COc1ccc(Oc2ccc(C(F)(F)F)cc2C(=O)Nc2cccc(S(N)(=O)=O)c2)c(OC)c1 [Compound 36, 2-(2,4-dimethoxyphenoxy)-N-(3-sulfamoylphenyl)-5-(trifluoromethyl)benzamide]	4	66
NS(=O)(=O)c1cccc(NC(=O)c2c(Cl)cc(Cl)cc2Oc2ccc(F)cc2)c1 [Compound 94, 2,4-dichloro-6-(4-fluorophenoxy)-N-(3-sulfamoylphenyl)benzamide]	5	97
CC(C)Oc1ccc(Oc2ccc(C(F)(F)F)cc2C(=O)Nc2cccc(S(N)(=O)=O)c2)cc1 [Compound 37, 2-(4-isopropoxyphenoxy)-N-(3-sulfamoylphenyl)-5-(trifluoromethyl)benzamide]	6	76
NS(=O)(=O)c1cccc(NC(=O)c2c(Oc3ccc(F)cc3)cc(C(F)(F)F)cc2C(F)(F)F)c1 [Compound 88, 2-(4-fluorophenoxy)-N-(3-sulfamoylphenyl)-4,6-bis(trifluoromethyl)benzamide]	7	105
